Test results from patent US20060275321A1, “Polypeptide antagonists of HIV-1 Tat protein” (Phoenix Pharmaceuticals, Inc., priority 2005, published 2006).
Bridges are numbered along the chain shown (N, C = ends). Where no end group is shown, it is not given here. The star is where a group is joined. Acm = CC(=O)NC*

Tested on: dissociate cultured cortical neurons
Assay: Mobilization of intracellular Ca2+ in dissociate cultured cortical neurons (Fura-2 AM fluorescence)
Type: cell-based, rat
Conditions: dissociate and cultured cortical neurons of newborn Sprague-Dawley rats, value ± spread
Excerpt: Neurons can be isolated from cerebral cortex according to the protocols for postnatal dissociated nuerons as disclosed for example by Huettner, J. E. and Baughman, R. W., Primary Culture of Identified Neurons From the Visual Cortex of Postnatal Rats, Journal of Neurosciences 6; 3044-3060 (1986); Brewer, G. J., Isolation and Culture of Adult Rat Hippocampal Neurons, Journal of Neuroscience Methods, 71:143-155 (1997); and Brailoiu et al., NAADP Potentiates Neurite Outgrowth, Journal of Biological Chemistry (in press), each hereby incorporated by reference. Newborn Sprague-Dawley rates (about 1 day to about 4 days old) were killed by cervical dislocation. Cerebral cortex was removed and quickly immersed in ice-cold phosphate buffer solution. After removal of meninges, tissue was minced into about 1-millimeter blocks, incubated for about 45 minutes at 37° C. in Hanks balanced salt solution without Ca^2+ and Mg^2+ (Invitrogen, 1600 Faraday Avenue, Carlsbad, Calif. 92008) and supplemented with about 200 ug/mL penicillin, 0.1% EDTA and papain 0.15 mg/mL (Sigma-Aldrich, St. Louis, Mo.). In accordance with the procedure disclosed by Brewer, the tissue can be further dissociated by gentle mechanical trituration. […]

30-86 Cys30Acm, Cys34Acm (Cys31-Cys37): HIV-1 Tat residues 30-86, Cys-Acm at 30 and 34, disulfide bridge Cys31-Cys37 (C(Acm)CFHC(Acm)QVCFITKALGISYGRKKRRQRRRAHQNSQTHQASLSKQPTSQPRGDPTGPKE; disulfide 2-8)
[Ca^2+] response: No Response
